Literature values in patent US8338381B2, “Composition and method for the treatment of eye disease” (ADER Enterprise, Inc., priority 2003, dated 2012).

Assays:
[1] = administered directly to the eye; Babizhayev 1996
eye cataracts = conditions: administered directly to the eye; Babizhayev 1996

NCCC(=O)N[C@@H](Cc1cnc[nH]1)C(=O)O [L-carnosine, β-alanyl-L-histidine]
accumulation in the aqueous humor of the eye [1]: does not lead to accumulation in the aqueous humor of the eye | effect on eye cataracts beyond placebo control (eye cataracts): does not lead to accumulation in the aqueous humor of the eye or have any significant effect on eye cataracts beyond that of a placebo control
